What was measured:
Format in all cases: cell-based
[1] = test system: CaSki (Human cervical epidermoid carcinoma); assay: in vitro culture cell number, CaSki
Text: (§1) Substances having the structures of the synthesised target material when added to in vitro cultures of various cancer cell lines produced a dose-related cell death as indicated in the Tables below.

[2] = test system: WiDr (Human colon adenocarcinoma); assay: in vitro culture cell number, WiDr
Text: as §1

[3] = test system: PC3 (Human prostate adenocarcinoma); assay: in vitro culture cell number, PC3
Text: as §1

[4] = test system: MOLT4 (Human Tcell leukaemia); assay: in vitro culture cell number, MOLT4
Text: as §1

[5] = test system: HeLa (Human cervical carcinoma); assay: in vitro culture cell number, HeLa
Text: as §1

[6] = test system: G361 (Human malignant melanoma); assay: in vitro culture cell number, G361
Text: as §1

[7] = test system: PA-1 (Human ovarian teratocarcinoma); assay: in vitro culture cell number, PA-1
Text: as §1

[8] = test system: KHOS/NP (Human osteocarcinoma); assay: in vitro culture cell number, KHOS/NP
Text: as §1

[9] = test system: WIL2 (Human B lymphoblastoma); assay: in vitro culture cell number, WIL2
Text: as §1

[10] = Homo sapiens, 7.5 μg/ml, P < 0.001, read-out: Cell No (% Control)
[11] = Homo sapiens, 10.0 μg/ml, P < 0.001, read-out: Cell No (% Control)
[12] = Homo sapiens, 20.0 μg/ml, P < 0.001, read-out: Cell No (% Control)
[13] = Homo sapiens, 2.0 μg/ml, P < 0.001, read-out: Cell No (% Control)
[14] = Homo sapiens, 5.0 μg/ml, P < 0.001, read-out: Cell No (% Control)

O=CCC1OCCC1=O (racemic) [Compound 8, (3-ketotetrahydrofuran-2-yl)ethanal]
Cell No ([1]; 2.0 μg/ml): 4401
Cell No ([1]; 5.0 μg/ml): 4617
Cell No ([1]; 7.5 μg/ml): 3495
Cell No ([1]; 10.0 μg/ml): 2800
Cell No ([1]; 20.0 μg/ml): 234
activity at 2 µg/mL ([1]; Homo sapiens, Ca-Ski, 2.0 μg/ml, P < 0.001, read-out: Cell No (% Control)): 89.1%
activity at 5 µg/mL ([1]; Homo sapiens, Ca-Ski, 5.0 μg/ml, read-out: Cell No (% Control)): 93.5%
activity at 7.5 µg/mL ([1]; Homo sapiens, Ca-Ski, 7.5 μg/ml, P < 0.001, read-out: Cell No (% Control)): 70.8%
activity at 10 µg/mL ([1]; Homo sapiens, Ca-Ski, 10.0 μg/ml, P < 0.001, read-out: Cell No (% Control)): 56.7%
activity at 20 µg/mL ([1]; Homo sapiens, Ca-Ski, 20.0 μg/ml, P < 0.001, read-out: Cell No (% Control)): 4.7%
Cell No ([2]; 2.0 μg/ml): 5845
Cell No ([2]; 5.0 μg/ml): 5762
Cell No ([2]; 7.5 μg/ml): 5097
Cell No ([2]; 10.0 μg/ml): 3826
Cell No ([2]; 20.0 μg/ml): 178
activity at 2 µg/mL ([2]; Homo sapiens, 2.0 μg/ml, P < 0.05, read-out: Cell No (% Control)): 90.9%
activity at 5 µg/mL ([2]; Homo sapiens, 5.0 μg/ml, P < 0.05, read-out: Cell No (% Control)): 89.6%
activity at 7.5 µg/mL [2, 10]: 79.3%
activity at 10 µg/mL [2, 11]: 59.5%
activity at 20 µg/mL [2, 12]: 2.8%
activity at 2 µg/mL ([3]; Homo sapiens, PC-3, PC3, 2.0 μg/ml, P < 0.05, read-out: Cell No (% Control)): 87.9%
activity at 5 µg/mL ([3]; Homo sapiens, PC-3, PC3, 5.0 μg/ml, P < 0.001, read-out: Cell No (% Control)): 67.4%
activity at 7.5 µg/mL ([3]; Homo sapiens, PC-3, PC3, 7.5 μg/ml, P < 0.001, read-out: Cell No (% Control)): 32.9%
activity at 10 µg/mL ([3]; Homo sapiens, PC-3, PC3, 10.0 μg/ml, P < 0.001, read-out: Cell No (% Control)): 9.3%
activity at 20 µg/mL ([3]; Homo sapiens, PC-3, PC3, 20.0 μg/ml, P < 0.001, read-out: Cell No (% Control)): 5.9%
Cell No ([3]; PC3, 2.0 μg/ml): 5908
Cell No ([3]; PC3, 5.0 μg/ml): 4532
Cell No ([3]; PC3, 7.5 μg/ml): 2211
Cell No ([3]; PC3, 10.0 μg/ml): 627
Cell No ([3]; PC3, 20.0 μg/ml): 399
activity at 0.5 µg/mL ([4]; Homo sapiens, MOLT-4, MOLT4, 0.5 μg/ml, P < 0.001, read-out: Cell No (% Control)): 91.2%
activity at 1 µg/mL ([4]; Homo sapiens, MOLT-4, MOLT4, 1.0 μg/ml, P < 0.001, read-out: Cell No (% Control)): 78.8%
activity at 1.5 µg/mL ([4]; Homo sapiens, MOLT-4, MOLT4, 1.5 μg/ml, P < 0.001, read-out: Cell No (% Control)): 53.7%
activity at 2 µg/mL ([4]; Homo sapiens, MOLT-4, MOLT4, 2.0 μg/ml, P < 0.001, read-out: Cell No (% Control)): 34.2%
activity at 5 µg/mL ([4]; Homo sapiens, MOLT-4, MOLT4, 5.0 μg/ml, P < 0.001, read-out: Cell No (% Control)): 12.4%
Cell No ([4]; MOLT4, 0.5 μg/ml): 4543
Cell No ([4]; MOLT4, 1.0 μg/ml): 3920
Cell No ([4]; MOLT4, 1.5 μg/ml): 2674
Cell No ([4]; MOLT4, 2.0 μg/ml): 1701
Cell No ([4]; MOLT4, 5.0 μg/ml): 619
Cell No ([5]; 0.5 μg/ml): 12165
Cell No ([5]; 1.0 μg/ml): 10932
Cell No ([5]; 1.5 μg/ml): 7453
Cell No ([5]; 2.0 μg/ml): 4675
Cell No ([5]; 5.0 μg/ml): 201
activity at 0.5 µg/mL ([5]; Homo sapiens, 0.5 μg/ml, P < 0.001, read-out: Cell No (% Control)): 83.9%
activity at 1 µg/mL ([5]; Homo sapiens, 1.0 μg/ml, P < 0.001, read-out: Cell No (% Control)): 75.4%
activity at 1.5 µg/mL ([5]; Homo sapiens, 1.5 μg/ml, P < 0.001, read-out: Cell No (% Control)): 51.4%
activity at 2 µg/mL [5, 13]: 32.2%
activity at 5 µg/mL [5, 14]: 1.4%
Cell No ([6]; G361, 2.0 μg/ml): 1679
Cell No ([6]; G361, 5.0 μg/ml): 314
Cell No ([6]; G361, 7.5 μg/ml): 159
Cell No ([6]; G361, 10.0 μg/ml): 142
Cell No ([6]; G361, 20.0 μg/ml): 230
activity at 2 µg/mL ([6]; Homo sapiens, G-361, G361, 2.0 μg/ml, P < 0.001, read-out: Cell No (% Control)): 35.8%
activity at 5 µg/mL ([6]; Homo sapiens, G-361, G361, 5.0 μg/ml, P < 0.001, read-out: Cell No (% Control)): 6.7%
activity at 7.5 µg/mL ([6]; Homo sapiens, G-361, G361, 7.5 μg/ml, P < 0.001, read-out: Cell No (% Control)): 3.4%
activity at 10 µg/mL ([6]; Homo sapiens, G-361, G361, 10.0 μg/ml, P < 0.001, read-out: Cell No (% Control)): 3%
activity at 20 µg/mL ([6]; Homo sapiens, G-361, G361, 20.0 μg/ml, P < 0.001, read-out: Cell No (% Control)): 4.9%
activity at 0.5 µg/mL ([7]; Homo sapiens, PA-1, 0.5 μg/ml, P < 0.001, read-out: Cell No (% Control)): 84.3%
activity at 1 µg/mL ([7]; Homo sapiens, PA-1, 1.0 μg/ml, P < 0.001, read-out: Cell No (% Control)): 84.9%
activity at 1.5 µg/mL ([7]; Homo sapiens, PA-1, 1.5 μg/ml, P < 0.001, read-out: Cell No (% Control)): 77.3%
activity at 2 µg/mL ([7]; Homo sapiens, PA-1, 2.0 μg/ml, P < 0.001, read-out: Cell No (% Control)): 72.4%
activity at 5 µg/mL ([7]; Homo sapiens, PA-1, 5.0 μg/ml, P < 0.001, read-out: Cell No (% Control)): 20.9%
Cell No ([7]; PA-1, 0.5 μg/ml): 11346
Cell No ([7]; PA-1, 1.0 μg/ml): 11276
Cell No ([7]; PA-1, 1.5 μg/ml): 10338
Cell No ([7]; PA-1, 2.0 μg/ml): 9678
Cell No ([7]; PA-1, 5.0 μg/ml): 2729
Cell No ([8]; 2.0 μg/ml): 9442
Cell No ([8]; 5.0 μg/ml): 6356
Cell No ([8]; 7.5 μg/ml): 2469
Cell No ([8]; 10.0 μg/ml): 862
Cell No ([8]; 20.0 μg/ml): 380
activity at 2 µg/mL [8, 13]: 84.5%
activity at 5 µg/mL [8, 14]: 56.9%
activity at 7.5 µg/mL [8, 10]: 22.1%
activity at 10 µg/mL [8, 11]: 7.7%
activity at 20 µg/mL [8, 12]: 3.4%
activity at 0.5 µg/mL ([9]; Homo sapiens, WIL2, 0.5 μg/ml, P < 0.001, read-out: Cell No (% Control)): 85.3%
activity at 1 µg/mL ([9]; Homo sapiens, WIL2, 1.0 μg/ml, P < 0.001, read-out: Cell No (% Control)): 58.8%
activity at 1.5 µg/mL ([9]; Homo sapiens, WIL2, 1.5 μg/ml, P < 0.001, read-out: Cell No (% Control)): 24.9%
activity at 2 µg/mL ([9]; Homo sapiens, WIL2, 2.0 μg/ml, P < 0.001, read-out: Cell No (% Control)): 16.1%
activity at 5 µg/mL ([9]; Homo sapiens, WIL2, 5.0 μg/ml, P < 0.001, read-out: Cell No (% Control)): 7.1%
Cell No ([9]; WIL2, 0.5 μg/ml): 8431
Cell No ([9]; WIL2, 1.0 μg/ml): 5810
Cell No ([9]; WIL2, 1.5 μg/ml): 2459
Cell No ([9]; WIL2, 2.0 μg/ml): 1591
Cell No ([9]; WIL2, 5.0 μg/ml): 705
